# Test results as given in US10154667B2, “Broadleaf crop control with 6-arylpicoline carboxylic acids, 2-arylpyrimidine carboxylic acids, or salts or esters thereof” (Dow AgroSciences LLC, priority 2013, dated 2018).
# Like-named read-outs stand apart in the source and are kept apart here.
# Experiments:
# Assay type in all cases: in vivo, Glycine max
# [1] = system: Resnick GLXMA (conventional soybean); assay: Greenhouse evaluation of broadleaf volunteer crop control, Resnick soybean; conditions: 2 to 3 leaf stage, after 21 days, 0 no injury, 100 complete kill
# Protocol: (§1) Test plants were grown in METRO-MIX® 360 (SunGro Horticulture, Bellevue, Wash.) in 132.7 square centimeters (cm^2) plastic pots for 7-21 days in a greenhouse with an approximate 15 hour (h) photoperiod which was maintained at about 23-29° C. during the day and 22-28° C. during the night. Plants were grown to the 2 to 3 leaf stage prior to applications. Both conventional soybean crops varieties, Maverick and Resnick, and herbicide resistant (HT) varieties AAD12, AAD1, and ROUNDUP® ready soybean crops were treated.
# (§2) A weighed amount, determined by the highest rate to be tested, of each test compound was placed in a 25 milliliter (mL) glass vial and was dissolved in 4 mL of a 97:3 v/v (volume/volume) mixture of acetone and dimethyl sulfoxide (DMSO), which will be referred to as General Purpose Solvent (GPS), to obtain concentrated stock solutions. […] The concentrated stock solutions obtained were diluted with 20 mL of an aqueous mixture containing water, GPS, isopropyl alcohol, ATPLUS® 411F crop oil concentrate, and TRITON® X-155 surfactant in a 46:42:12:1.0:0.02 v/v ratio to obtain spray solutions containing the highest application rates. Additional application rates were obtained by serial dilution of 12 mL of the high rate solution into a solution containing 2 mL of 97:3 v/v (volume/volume) mixture of acetone and dimethyl sulfoxide (DMSO) and 10 mL of an aqueous mixture containing water, GPS, isopropyl alcohol, ATPLUS® 411F crop oil concentrate, and TRITON® X-155 surfactant in a 46:42:12:1.0:0.02 v/v ratio to obtain 1/2X, 1/4X, 1/8X and 1/16X rates of the high rate (X). Compound requirements are based upon a 12 mL application volume at a rate of 187 L/ha. Formulated compounds were applied to the plant material with an overhead Mandel track sprayer equipped with 8002E nozzles calibrated to deliver 187 L/ha over an application area of 0.503 square meters (m^2) at a spray height of 18 inches (43 cm) above the average plant canopy height. Control plants were sprayed in the same manner with the solvent blank. The treated plants and control plants were placed in a greenhouse as described above and watered by sub-irrigation to prevent wash-off of the test compounds. After 21 days, the condition of the test plants as compared with that of the control plants was determined visually and scored on a scale of 0 to 100 percent where 0 corresponds to no injury and 100 corresponds to complete kill, and results are listed in Table 1 along with active ingredients and their respective formulations. Each score in Table 1 represents an average obtained from results of three representative experiments.
# [2] = system: AAD12 GLXMA (HT variety soybean); assay: Greenhouse evaluation of broadleaf volunteer crop control, AAD12 soybean; conditions: 2 to 3 leaf stage, after 21 days, 0 no injury, 100 complete kill
# Protocol: as §1, §2
# [3] = system: Maverick GLXMA (conventional soybean); assay: Greenhouse evaluation of broadleaf volunteer crop control, Maverick soybean; conditions: Glycine max, 504 h, read-out: Average Percent Crop Control after Treatment, Maverick GLXMA
# Protocol: as §1, §2
# (§3) Additional formulations with different 6-arylpicolinates were tested in the greenhouse on Maverick and RoundUp-ready soybean crops using the procedure described above. Each score in Table 2 represents an average obtained from results of three representative experiments.
# [4] = system: AAD1 GLXMA (HT variety soybean); assay: Greenhouse evaluation of broadleaf volunteer crop control, AAD1 soybean; conditions: 2 to 3 leaf stage, after 21 days, 0 no injury, 100 complete kill
# Protocol: as §1, §2
# [5] = system: ROUNDUP READY soybeans (GLXMA); assay: Field evaluation with various herbicides, 46 days after treatment; conditions: 46 Days After Treatment
# Description: (§4) The average percent visual control of ROUNDUP READY® soybeans (GLXMA) 46 days after treatment with various herbicides with standard formulation in comparison with compound of Formula (IV) at specified rates are provided in Table 6 below. The data was the result of conducting factorial replicated field trials (4 trials) by applying the compositions at a spray pressure of 300 kPa and a spray volume of 200 L/ha. The treated plots and control plots were visually rated blind at the specified dates after application. Ratings were based on a scale of 0-100%, as discussed above, wherein 0% indicates complete growth of the undesired vegetation and 100% indicates complete prevention/eradication of the undesired vegetation.
# [6] = system: ROUNDUP READY soybeans (GLXMA); assay: Field evaluation with various herbicides, 30 days after treatment; conditions: 30 Days After Treatment
# Description: as §4, with “The” for “The average percent visual control of ROUNDUP READY® soybeans (GLXMA) 46 days after treatment with various herbicides with standard formulation in comparison with compound of Formula (IV) at specified rates are provided in Table 6 below. The”, “(3” for “(4”
# [7] = system: RoundUp Ready GLXMA (HT variety soybean); assay: Greenhouse evaluation of broadleaf volunteer crop control, RoundUp ready soybean; conditions: Glycine max, 504 h, greenhouse, 2 to 3 leaf stage, after 21 days, 0 no injury, 100 complete kill, read-out: Average Percent Crop Control after Treatment, RoundUp Ready GLXMA
# Protocol: as §1, §2, §3
smiles,measurement,setting,value
COc1c(Cl)ccc(-c2cc(N)c(Cl)c(C(=O)[O-])n2)c1F.[K+] [drawing 12],"Average Percent Crop Control after Treatment, Resnick GLXMA",[1]; 1.1 g ae/ha,99%
same,"Average Percent Crop Control after Treatment, Resnick GLXMA",[1]; 2.2 g ae/ha,100%
same,"Average Percent Crop Control after Treatment, Resnick GLXMA",[1]; 4.4 g ae/ha,100%
same,"Average Percent Crop Control after Treatment, Resnick GLXMA",[1]; 8.75 g ae/ha,100%
same,"Average Percent Crop Control after Treatment, Resnick GLXMA",[1]; 17.5 g ae/ha,100%
same,"Average Percent Crop Control after Treatment, AAD12 GLXMA",[2]; 1.1 g ae/ha,100%
same,"Average Percent Crop Control after Treatment, AAD12 GLXMA",[2]; 2.2 g ae/ha,100%
same,"Average Percent Crop Control after Treatment, AAD12 GLXMA",[2]; 4.4 g ae/ha,100%
same,"Average Percent Crop Control after Treatment, AAD12 GLXMA",[2]; 8.75 g ae/ha,100%
same,"Average Percent Crop Control after Treatment, AAD12 GLXMA",[2]; 17.5 g ae/ha,100%
same,pest or weed control at 1.1 g/ha,[3],97%
same,"Average Percent Crop Control after Treatment, AAD1 GLXMA",[4]; 1.1 g ae/ha,100%
same,"Average Percent Crop Control after Treatment, AAD1 GLXMA",[4]; 2.2 g ae/ha,100%
same,"Average Percent Crop Control after Treatment, AAD1 GLXMA",[4]; 4.4 g ae/ha,100%
same,"Average Percent Crop Control after Treatment, AAD1 GLXMA",[4]; 8.75 g ae/ha,100%
same,"Average Percent Crop Control after Treatment, AAD1 GLXMA",[4]; 17.5 g ae/ha,100%
C[n+]1ccc(-c2cc[n+](C)cc2)cc1 [Paraquat],% Crop Control,[5]; 300 g ai/Ha,85%
same,% Crop Control,[6]; 300 g ai/Ha,61.7%
COc1c(Cl)ccc(-c2nc(C(=O)O)c(Cl)c(N)c2F)c1F [drawing 11],"Average Percent Crop Control after Treatment, Resnick GLXMA",[1]; 1.1 g ae/ha,83%
same,"Average Percent Crop Control after Treatment, Resnick GLXMA",[1]; 2.2 g ae/ha,92%
same,"Average Percent Crop Control after Treatment, Resnick GLXMA",[1]; 4.4 g ae/ha,100%
same,"Average Percent Crop Control after Treatment, Resnick GLXMA",[1]; 8.75 g ae/ha,100%
same,"Average Percent Crop Control after Treatment, Resnick GLXMA",[1]; 17.5 g ae/ha,100%
same,pest or weed control at 2.2 g/ha,[7]; 2.2 g ae/ha,83%
same,pest or weed control at 4.4 g/ha,[7]; 4.4 g ae/ha,93%
same,pest or weed control at 8.75 g/ha,[7]; 8.75 g ae/ha,100%
same,pest or weed control at 17.5 g/ha,[7]; 17.5 g ae/ha,100%
same,"Average Percent Crop Control after Treatment, AAD12 GLXMA",[2]; 1.1 g ae/ha,85%
same,"Average Percent Crop Control after Treatment, AAD12 GLXMA",[2]; 2.2 g ae/ha,93%
same,"Average Percent Crop Control after Treatment, AAD12 GLXMA",[2]; 4.4 g ae/ha,100%
same,"Average Percent Crop Control after Treatment, AAD12 GLXMA",[2]; 8.75 g ae/ha,100%
same,"Average Percent Crop Control after Treatment, AAD12 GLXMA",[2]; 17.5 g ae/ha,100%
same,pest or weed control at 1.1 g/ha,"[3]; 1.1 g ae/ha, greenhouse, 2 to 3 leaf stage, after 21 days, 0 no injury, 100 complete kill",87%
same,pest or weed control at 2.2 g/ha,"[3]; 2.2 g ae/ha, greenhouse, 2 to 3 leaf stage, after 21 days, 0 no injury, 100 complete kill",95%
same,pest or weed control at 4.4 g/ha,"[3]; 4.4 g ae/ha, greenhouse, 2 to 3 leaf stage, after 21 days, 0 no injury, 100 complete kill",100%
same,pest or weed control at 8.75 g/ha,"[3]; 8.75 g ae/ha, greenhouse, 2 to 3 leaf stage, after 21 days, 0 no injury, 100 complete kill",100%
same,pest or weed control at 17.5 g/ha,"[3]; 17.5 g ae/ha, greenhouse, 2 to 3 leaf stage, after 21 days, 0 no injury, 100 complete kill",100%
same,"Average Percent Crop Control after Treatment, AAD1 GLXMA",[4]; 2.2 g ae/ha,87%
same,"Average Percent Crop Control after Treatment, AAD1 GLXMA",[4]; 4.4 g ae/ha,100%
same,"Average Percent Crop Control after Treatment, AAD1 GLXMA",[4]; 8.75 g ae/ha,100%
same,"Average Percent Crop Control after Treatment, AAD1 GLXMA",[4]; 17.5 g ae/ha,100%
COc1nc(C)nc(=NC(=O)NS(=O)(=O)c2ccccc2C(=O)O)[nH]1 [Metsulfuron],% Crop Control,[5]; 6 g ai/Ha,98.3%
same,% Crop Control,[6]; 6 g ai/Ha + 1% J'Oil,96%
same,% Crop Control,[6]; 6 g ai/Ha,89.3%
"CNC.O=C(O)COc1ccc(Cl)cc1Cl [2,4-D-dma]",% Crop Control,[5]; 1300 g ai/Ha,97.3%
C#CCN1C(=O)COc2cc(F)c(N3C(=O)C4=C(CCCC4)C3=O)cc21 [Flumioxazin],% Crop Control,[5]; 25 g ai/Ha,0%
